Experimental data as given in patent publication US9363996B2, “Compositions and method for blocking ethylene response in field crops using 3-(cy-clopropyl-l-enyl)-propanoic salt” (Yissum Research Development Company of the Hebrew …, priority 2009, dated 2016).

Legend:
wheat plants [1] = test: Wheat grain weight at the milky stages after Ethephon treatment; type: in vivo, wheat (Triticum turgidum var. 'Gdera'); details: Ethephon 750 μL L^−1, sandy soil
Method: (§1) (1) Abscission—This is a very sensitive model system for studying the effects of plant hormones. Ethylene induces the process of abscission, while auxin delays it. In the laboratory the experimental system is based on plant organ explants, which include the abscission zone. Abscission is induced by exposure to ethylene and at the termination of the experiment the number of abscised organs, usually either leaf blades or petioles are counted and the fraction of abscission is calculated. In the case of fruit, the decrease in fruit retention force is analyzed. In cotton, when WS-CPD (the ethylene-action antagonist herein disclosed) is tested, the whole plants or explants are pretreated by spraying with the antagonist, dissolved in a phosphate buffer solution (10-20 mM, pH 7.0) including 0.1% commercially available Kinetic™ as surfactant, and left to incubate for a predetermined time, usually between 6 and 24 h. The plants or explants are then further exposed for 24 h to ethylene gas (5 to 20 μL L^−1). The plants or explants are then ventilated and incubated for the required time under controlled conditions. At the end of the experiment the percentage of abscission is determined. (2) Chlorophyll degradation—This is a standard model for studying senescence. Plant material (whole plants, excised leaves or leaf discs) are pretreated. In cotton, tobacco and wheat, when WS-CPD is tested, the whole plants or explants are pretreated by spraying with the antagonist, dissolved in phosphate buffer solution (10-20 mM, pH 7.0) including 0.1% commercially available Kinetic™ surfactant, and left to incubate for a predetermined time, usually between 6 and 241. The plants or explants are then further exposed for 24 h to ethylene gas (1 to 100 μL L^−1), or sprayed with Ethephon™ (wheat; 250 to 750 μL L^−1). The plants or explants are then ventilated and incubated for the required time under controlled conditions. At the end of the experiment a dimethylsulfoxide (DMSO) extract of the plant tissue is prepared, and the chlorophyll content of the extract is determined by spectrophotometric analysis. The chlorophyll content is reported either on a fresh, dry weight basis, or on a surface area basis. (3) Epinasty—This is also one of the classical methods for studying ethylene effects in plants. The extent of ethylene-induced epinasty of leaves is determined by measuring the change of the angle between the petiole and the stem shoot or blade. After exposure of the intact plant to ethylene, the upright grown leaves bend downward. The increase in the angle values (degrees) between petiole and the stem is used as a measure of the effect of the ethylene. When WS-CPD is tested on cotton and wheat plants, the whole plants are pretreated by spraying with the antagonist dissolved in phosphate buffer solution (10-20 mM, pH 7.6) including 0.1% Kinetic™ as surfactant, and left to incubate for a predetermined time, usually between 6 and 24 h. The plants are then further exposed for 24 h to ethylene gas (cotton, 5 to 10 μL L^−1), or sprayed with Ethephon™ (wheat, 250 to 750 μL L^−1). The plants are then ventilated and incubated for the required time under controlled conditions. The epinastic effect is expressed by measuring the degree values of the downward curvature between the blade and petiole (cotton, FIGS. 1-3) or between the blade and the stem (wheat, FIGS. 31 and 32). (4) Wheat Grain yield—This is a common test of the effects of exposure of monocot plants either to environmental stresses such as drought that induce senescence by increasing endogenous ethylene production. Excessive internal or external ethylene will accelerate senescence which will lead to reduced grain yield. In this project the intact plants were grown in the greenhouse up to the spike hading at milky stage I and II. The plants were then sprayed with the dissolved WS-CPD in phosphate buffer solution (10 mM, pH 7.6) including 0.1% Kinetic™ as surfactant. Young Cotton Seedlings […]

wheat plants [2] = test: Ethephon-induced chlorophyll degradation in wheat leaves, glumes and chaffs; type: in vivo, wheat (Triticum turgidum var. 'Gdera'); details: for reduction of chlorophyll content: chaffes; for reduction of chlorophyll content / reduction in chlorophyll content: milky stage I; for decrease of chlorophyll content: Ethephon 250 and 750 μL L^−1 at milky stage I, after 5-6 days; for reduction in chlorophyll content: glumes
Method: as §1

wheat plants [3] = test: Ethephon-induced flag leaf epinasty of wheat plants after spike heading; type: in vivo, wheat (Triticum turgidum var. 'Gdera'); details: Ethephon 750 μL L^−1 spray alone
Method: (1) Abscission—This is a very sensitive model system for studying the effects of plant hormones. Ethylene induces the process of abscission, while auxin delays it. In the laboratory the experimental system is based on plant organ explants, which include the abscission zone. Abscission is induced by exposure to ethylene and at the termination of the experiment the number of abscised organs, usually either leaf blades or petioles are counted and the fraction of abscission is calculated. In the case of fruit, the decrease in fruit retention force is analyzed. In cotton, when WS-CPD (the ethylene-action antagonist herein disclosed) is tested, the whole plants or explants are pretreated by spraying with the antagonist, dissolved in a phosphate buffer solution (10-20 mM, pH 7.0) including 0.1% commercially available Kinetic™ as surfactant, and left to incubate for a predetermined time, usually between 6 and 24 h. […] At the end of the experiment the percentage of abscission is determined. […] At the end of the experiment a dimethylsulfoxide (DMSO) extract of the plant tissue is prepared, and the chlorophyll content of the extract is determined by spectrophotometric analysis. […] The extent of ethylene-induced epinasty of leaves is determined by measuring the change of the angle between the petiole and the stem shoot or blade. […]

tobacco seedlings = test: Ethylene-induced chlorophyll degradation in tobacco seedling leaves; type: in vivo, tobacco (Nicotiana tabacum var. 'Samsun'); details: ethylene alone
Method: as §1, with “ethylene.” for “ethylene. When WS-CPD is tested on cotton and wheat plants, the whole plants are pretreated by spraying with the antagonist dissolved in phosphate buffer solution (10-20 mM, pH 7.6) including 0.1% Kinetic™ as surfactant, and left to incubate for a predetermined time, usually between 6 and 24 h. The plants are then further exposed for 24 h to ethylene gas (cotton, 5 to 10 μL L^−1), or sprayed with Ethephon™ (wheat, 250 to 750 μL L^−1). The plants are then ventilated and incubated for the required time under controlled conditions. The epinastic effect is expressed by measuring the degree values of the downward curvature between the blade and petiole (cotton, FIGS. 1-3) or between the blade and the stem (wheat, FIGS. 31 and 32). (4) Wheat Grain yield—This is a common test of the effects of exposure of monocot plants either to environmental stresses such as drought that induce senescence by increasing endogenous ethylene production. Excessive internal or external ethylene will accelerate senescence which will lead to reduced grain yield. In this project the intact plants were grown in the greenhouse up to the spike hading at milky stage I and II. The plants were then sprayed with the dissolved WS-CPD in phosphate buffer solution (10 mM, pH 7.6) including 0.1% Kinetic™ as surfactant. Young Cotton Seedlings”

wheat seedlings = test: Third leaf growth of young wheat seedlings exposed to ethylene; type: in vivo, wheat (Triticum turgidum var. 'Gdera'); details: for inhibition of growth of the third leaf: additional experiment
[4] = test system: young cotton leaf explants; test: Ethylene-induced petiole abscission of young cotton leaf explants; type: in vivo, cotton (Gossyium hirsutum barbadense L.); details: ethylene alone
Method: (1) Abscission—This is a very sensitive model system for studying the effects of plant hormones. Ethylene induces the process of abscission, while auxin delays it. In the laboratory the experimental system is based on plant organ explants, which include the abscission zone. Abscission is induced by exposure to ethylene and at the termination of the experiment the number of abscised organs, usually either leaf blades or petioles are counted and the fraction of abscission is calculated. In the case of fruit, the decrease in fruit retention force is analyzed. In cotton, when WS-CPD (the ethylene-action antagonist herein disclosed) is tested, the whole plants or explants are pretreated by spraying with the antagonist, dissolved in a phosphate buffer solution (10-20 mM, pH 7.0) including 0.1% commercially available Kinetic™ as surfactant, and left to incubate for a predetermined time, usually between 6 and 24 h. The plants or explants are then further exposed for 24 h to ethylene gas (5 to 20 μL L^−1). The plants or explants are then ventilated and incubated for the required time under controlled conditions. At the end of the experiment the percentage of abscission is determined. (2) Chlorophyll degradation—This is a standard model for studying senescence. Plant material (whole plants, excised leaves or leaf discs) are pretreated. In cotton, tobacco and wheat, when WS-CPD is tested, the whole plants or explants are pretreated by spraying with the antagonist, dissolved in phosphate buffer solution (10-20 mM, pH 7.0) including 0.1% commercially available Kinetic™ surfactant, and left to incubate for a predetermined time, usually between 6 and 241. […] At the end of the experiment a dimethylsulfoxide (DMSO) extract of the plant tissue is prepared, and the chlorophyll content of the extract is determined by spectrophotometric analysis. […] The extent of ethylene-induced epinasty of leaves is determined by measuring the change of the angle between the petiole and the stem shoot or blade. […]

SMILES	reduction of grain weight (wheat plants [1]; stage I) [%]	reduction of grain weight (wheat plants [1]; stage II) [%]	reduction of chlorophyll content (wheat plants [2]; Ethephon 250 μL L^−1) [%]	reduction of chlorophyll content (wheat plants [2]; Ethephon 750 μL L^−1) [%]	decrease of chlorophyll content (wheat plants [2]; flag leaf)	reduction of the content of chlorophyll (wheat plants [2]; flag leaf, Ethephon 750 μL L^−1, milky stage II) [%]	chlorophyll lower compared with the untreated control spikes (wheat plants [2]; glumes and chaffs, Ethephon 750 μL L^−1, milky stage II) [%]	reduction in chlorophyll content (wheat plants [2]; Ethephon 250 μL L^−1) [%]	reduction in chlorophyll content (wheat plants [2]; Ethephon 750 μL L^−1) [%]	decrease of chlorophyll content (wheat plants [2]; leaf II)	reduction of the content of chlorophyll (wheat plants [2]; leaf II, Ethephon 750 μL L^−1, milky stage II) [%]	flag leaf epinasty (wheat plants [3])	reduction of chlorophyll content (tobacco seedlings; mature (lower) leaves) [%]	decrease in chlorophyll content as compared with air-treated leaves (tobacco seedlings; young (upper) leaves) [%]	inhibition of growth of the third leaf (wheat seedlings; ethylene 1.6 μL L^−1) [%]	inhibition of growth of the third leaf (wheat seedlings; ethylene 20 μL L^−1) [%]	length of the third leaf longer than air-control leaf (wheat seedlings; ethylene 1 μL L^−1, continuous exposure) [%]	inhibition of growth of the third leaf compared to air control (wheat seedlings; ethylene 10 μL L^−1) [%]	inhibition of growth of the third leaf compared to air control (wheat seedlings; ethylene 100 μL L^−1) [%]	rate of petiole abscission [4]
O=P(O)(O)CCCl [Ethephon, reference compound]	4	18	33	28	16-21%	33	12	10	40	21-22%	47	strong leaf epinasty	–	–	–	–	–	–	–	–
C=C [ethylene]	–	–	–	–	–	–	–	–	–	–	–	–	72	17	20	35	50	50	30	accelerated
